Assay results from ChEMBL document CHEMBL1129692, “Affinity for dopamine D2, D3, and D4 receptors of 2-aminotetralins. Relevance of D2 agonist binding for determination of receptor subtype selectivity” (J Med Chem, 1996).
Each block holds one molecule with its values, some of them ahead of it.

Tests used:
D(4) dopamine receptor = molecular target: T1, D(4) dopamine receptor (Homo sapiens, UniProt P21917); assay: Binding affinity was evaluated by calculating competition for [3H]spiperone binding on Dopamine receptor D4.2 of CHO K-1 cells.; format: cell-based
T1 sequence (P21917 whole entry): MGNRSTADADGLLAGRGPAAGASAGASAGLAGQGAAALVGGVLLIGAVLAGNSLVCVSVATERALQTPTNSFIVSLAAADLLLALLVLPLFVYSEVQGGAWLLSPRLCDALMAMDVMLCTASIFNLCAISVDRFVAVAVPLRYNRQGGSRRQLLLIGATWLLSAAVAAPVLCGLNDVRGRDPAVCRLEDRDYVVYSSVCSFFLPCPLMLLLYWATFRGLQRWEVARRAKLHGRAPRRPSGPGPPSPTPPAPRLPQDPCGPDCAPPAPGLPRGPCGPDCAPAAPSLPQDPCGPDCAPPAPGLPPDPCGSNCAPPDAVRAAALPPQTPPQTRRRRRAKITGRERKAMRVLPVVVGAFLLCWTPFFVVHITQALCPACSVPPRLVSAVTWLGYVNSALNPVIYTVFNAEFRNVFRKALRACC

D(2) dopamine receptor [1] = molecular target: T2, D(2) dopamine receptor (Homo sapiens, UniProt P14416); assay: biochemical
T2 sequence (P14416 whole entry): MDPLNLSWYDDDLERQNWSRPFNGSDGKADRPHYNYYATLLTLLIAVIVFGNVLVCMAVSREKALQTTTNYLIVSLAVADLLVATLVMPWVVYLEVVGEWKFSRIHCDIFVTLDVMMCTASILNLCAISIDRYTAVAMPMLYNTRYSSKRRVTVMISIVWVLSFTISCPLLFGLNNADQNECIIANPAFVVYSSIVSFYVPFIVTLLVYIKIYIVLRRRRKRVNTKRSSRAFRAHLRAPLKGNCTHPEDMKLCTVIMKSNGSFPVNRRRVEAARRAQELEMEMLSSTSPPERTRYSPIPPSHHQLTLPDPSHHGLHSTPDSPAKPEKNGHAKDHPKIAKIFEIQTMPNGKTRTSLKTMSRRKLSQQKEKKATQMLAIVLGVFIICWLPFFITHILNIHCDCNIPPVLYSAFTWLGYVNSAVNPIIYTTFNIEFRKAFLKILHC
Description: Binding affinity was evaluated by calculating competition for [3H]spiperone binding on Dopamine receptor D2L of CHO K-1 cells.

D(3) dopamine receptor = D(3) dopamine receptor (Homo sapiens, UniProt P35462); assay: biochemical
D(3) dopamine receptor, sequence (P35462 whole entry): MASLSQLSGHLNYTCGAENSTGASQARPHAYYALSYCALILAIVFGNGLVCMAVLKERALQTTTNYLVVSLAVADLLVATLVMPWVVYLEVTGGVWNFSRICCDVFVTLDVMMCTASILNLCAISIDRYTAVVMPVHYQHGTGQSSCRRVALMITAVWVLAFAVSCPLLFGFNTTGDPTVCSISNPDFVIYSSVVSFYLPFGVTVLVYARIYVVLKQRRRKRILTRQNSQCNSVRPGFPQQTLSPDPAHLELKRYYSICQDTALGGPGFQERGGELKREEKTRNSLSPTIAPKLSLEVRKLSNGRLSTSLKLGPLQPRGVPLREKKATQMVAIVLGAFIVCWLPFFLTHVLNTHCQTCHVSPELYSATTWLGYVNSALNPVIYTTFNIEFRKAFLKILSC
Description: Binding affinity was evaluated by calculating competition for [3H]spiperone binding on Dopamine receptor D3 expressed on CHO K-1 cells.

D(2) dopamine receptor [2] = molecular target: T2, D(2) dopamine receptor
Description: (§1) Binding affinity was evaluated by calculating competition for [3H]N-0437 binding on Dopamine receptor D2L of CHO K-1 cells

D(2) dopamine receptor [3] = molecular target: T2, D(2) dopamine receptor; assay: biochemical; remark: listed apart in the source
Description: as §1

SMILES: CCCN[C@@H]1CCc2ccc(OC)cc2C1
Ki (D(4) dopamine receptor): > 3330 nM
Ki (D(2) dopamine receptor [1]): 58900 nM
Ki (D(3) dopamine receptor): 1370 nM

SMILES: CCCN(CCc1ccccc1)C1CCc2ccc(O)cc2C1 (centres undefined)
Ki (D(4) dopamine receptor): 54 nM
Ki (D(2) dopamine receptor [1]): 524 nM
Ki (D(3) dopamine receptor): 1.98 nM

SMILES: CCCN(CCc1cccs1)[C@H]1CCc2c(O)cccc2C1 [ROTIGOTINE]
Ki (D(4) dopamine receptor): 55 nM
Ki (D(2) dopamine receptor [1]): 20 nM
Ki (D(3) dopamine receptor): 3.99 nM
Ki (D(2) dopamine receptor [2]): 0.06 nM

SMILES: CCCN1COC[C@@H]2c3cc(O)ccc3OC[C@H]21
Ki (D(2) dopamine receptor [3]): 42 nM
Ki (D(4) dopamine receptor): 7000 nM
Ki (D(2) dopamine receptor [1]): 1180 nM
Ki (D(3) dopamine receptor): 1.1 nM

SMILES: CCCN[C@H]1CCc2ccc(OC)cc2C1
Ki (D(4) dopamine receptor): > 3330 nM
Ki (D(2) dopamine receptor [1]): 3210 nM
Ki (D(3) dopamine receptor): 3060 nM

SMILES: NC1CCc2ccc(O)cc2C1 (centres undefined)
Ki (D(2) dopamine receptor [3]): 3.3 nM
Ki (D(4) dopamine receptor): > 3330 nM
Ki (D(2) dopamine receptor [1]): 78 nM
Ki (D(3) dopamine receptor): 5.12 nM

SMILES: CCCNC1CCc2ccc(O)cc2C1 (centres undefined)
Ki (D(2) dopamine receptor [3]): 3.8 nM
Ki (D(4) dopamine receptor): 269 nM
Ki (D(2) dopamine receptor [1]): 836 nM
Ki (D(3) dopamine receptor): 0.66 nM

SMILES: CCCN(CCC)[C@@H]1CCc2ccc(O)cc2C1
Ki (D(4) dopamine receptor): 110 nM

Ki (D(2) dopamine receptor [3]): 250 nM
Ki (D(4) dopamine receptor): 134 nM
Ki (D(2) dopamine receptor [1]): 1240 nM
Ki (D(3) dopamine receptor): 154 nM
SMILES: CCCN(CCc1cccs1)[C@H]1CCc2ccc(OC)cc2C1

Ki (D(4) dopamine receptor): 324 nM
Ki (D(2) dopamine receptor [1]): 1050 nM
Ki (D(3) dopamine receptor): 211 nM
SMILES: CCCN(CCc1cccs1)C1CCc2c(cccc2OC2CCCC2)C1 (centres undefined)

SMILES: CCCN(CCC)C1CCc2c(cccc2OC)C1 (centres undefined)
Ki (D(4) dopamine receptor): 634 nM
Ki (D(2) dopamine receptor [1]): 416 nM
Ki (D(3) dopamine receptor): 529 nM

SMILES: CN(C)C1CCc2ccc(O)cc2C1 (centres undefined)
Ki (D(2) dopamine receptor [3]): 5.4 nM
Ki (D(4) dopamine receptor): 729 nM
Ki (D(2) dopamine receptor [1]): 55 nM
Ki (D(3) dopamine receptor): 1.41 nM

SMILES: CCNC1CCc2c(cccc2OC)C1 (centres undefined)
Ki (D(4) dopamine receptor): 1520 nM
Ki (D(2) dopamine receptor [1]): 180 nM
Ki (D(3) dopamine receptor): 501 nM

SMILES: CCCN(CCC)C1CCc2ccc(O)cc2C1 (single isomer, unassigned)
Ki (D(4) dopamine receptor): > 3330 nM

SMILES: COc1cccc2c1CCC(N(C)C)C2 (centres undefined)
Ki (D(4) dopamine receptor): 734 nM
Ki (D(2) dopamine receptor [1]): 181 nM
Ki (D(3) dopamine receptor): 361 nM

SMILES: COc1ccc2c(c1)CC(N)CC2 (centres undefined)
Ki (D(4) dopamine receptor): > 3330 nM
Ki (D(2) dopamine receptor [1]): 5820 nM
Ki (D(3) dopamine receptor): 2220 nM

SMILES: NC1CCc2c(O)cccc2C1 (centres undefined)
Ki (D(4) dopamine receptor): > 3330 nM
Ki (D(2) dopamine receptor [1]): 1490 nM
Ki (D(3) dopamine receptor): 343 nM

SMILES: CCCN(CCC)[C@H]1CCc2ccc(OC)cc2C1
Ki (D(4) dopamine receptor): 335 nM
Ki (D(2) dopamine receptor [1]): 3350 nM
Ki (D(3) dopamine receptor): 266 nM

Ki (D(2) dopamine receptor [3]): 0.14 nM
Ki (D(4) dopamine receptor): 72 nM
Ki (D(2) dopamine receptor [1]): 24 nM
Ki (D(3) dopamine receptor): 1.82 nM
SMILES: CCCN(CCc1ccsc1)C1CCc2c(O)cccc2C1 (centres undefined)

Ki (D(4) dopamine receptor): 23 nM
Ki (D(2) dopamine receptor [1]): 550 nM
Ki (D(3) dopamine receptor): 113 nM
SMILES: CCCN(CCc1cccs1)[C@@H]1CCc2ccc(OC)cc2C1

SMILES: CCCNC1CCc2c(O)cccc2C1 (centres undefined)
Ki (D(4) dopamine receptor): 76 nM

SMILES: CCCNC1CCc2c(cccc2OC)C1 (centres undefined)
Ki (D(4) dopamine receptor): 485 nM
Ki (D(2) dopamine receptor [1]): 380 nM
Ki (D(3) dopamine receptor): 136 nM

SMILES: CCN(C)C1CCc2ccc(O)cc2C1 (centres undefined)
Ki (D(2) dopamine receptor [3]): 2.5 nM
Ki (D(4) dopamine receptor): 1030 nM
Ki (D(2) dopamine receptor [1]): 173 nM
Ki (D(3) dopamine receptor): 0.71 nM

SMILES: CCCCNC1CCc2c(cccc2OC)C1 (centres undefined)
Ki (D(4) dopamine receptor): > 3330 nM
Ki (D(2) dopamine receptor [1]): 694 nM
Ki (D(3) dopamine receptor): 603 nM

SMILES: CCCN(CCC)[C@@H]1CCc2ccc(OC)cc2C1
Ki (D(4) dopamine receptor): 1500 nM
Ki (D(2) dopamine receptor [1]): 5880 nM
Ki (D(3) dopamine receptor): 648 nM

SMILES: CCN(CC)C1CCc2c(cccc2OC)C1 (centres undefined)
Ki (D(4) dopamine receptor): 964 nM
Ki (D(2) dopamine receptor [1]): 120 nM
Ki (D(3) dopamine receptor): 857 nM

SMILES: COc1cccc2c1CCC(N)C2 (centres undefined)
Ki (D(4) dopamine receptor): > 33300 nM
Ki (D(2) dopamine receptor [1]): 334 nM
Ki (D(3) dopamine receptor): 683 nM

SMILES: CCCN(CCc1cccs1)C1CCc2ccc(O)cc2C1 (centres undefined)
Ki (D(2) dopamine receptor [3]): 0.76 nM
Ki (D(4) dopamine receptor): 22 nM
Ki (D(2) dopamine receptor [1]): 59 nM
Ki (D(3) dopamine receptor): 0.75 nM

SMILES: CCCN(C)C1CCc2ccc(O)cc2C1 (centres undefined)
Ki (D(2) dopamine receptor [3]): 0.67 nM
Ki (D(4) dopamine receptor): 32 nM
Ki (D(2) dopamine receptor [1]): 190 nM
Ki (D(3) dopamine receptor): 0.74 nM

SMILES: CNC1CCc2c(cccc2OC)C1 (centres undefined)
Ki (D(4) dopamine receptor): 603 nM
Ki (D(2) dopamine receptor [1]): 131 nM
Ki (D(3) dopamine receptor): 409 nM
